Molecular target: Tyrosine-protein kinase BTK (Homo sapiens, UniProt Q06187)
Assay: LANCE-TR-FRET Assay: Assay Method B: BTK enzymatic activity was determined with the LANCE (Lanthanide Chelate Excite) TR-FRET (Time-resolved fluorescence resonance energy transfer) assay. In this assay, the potency (IC50) of each compound was determined from an eleven point (1:3 serial dilution; final compound concentration range in assay from 1 μM to 0.017 nM) titration curve using the following outlined procedure. To each well of a black non-binding surface Corning 384-well microplate (Corning Catalog #3820), 5 nL of compound (2000 fold dilution in final assay volume of 10 μL) was dispensed, followed by the addition of 7.5 μL of 1× kinase buffer (50 mM Hepes 7.5, 10 mM MgCl2, 0.01% Brij-35, 1 mM EGTA, 0.05% BSA & 1 mM DTT) containing 5.09 pg/μL (66.67 pM) of BTK enzyme (recombinant protein from baculovirus-transfected Sf9 cells: full-length BTK, 6HIS-tag cleaved). Following a 60 minute compound & enzyme incubation, each reaction was initiated by the addition of 2.5 μL 1× kinase buffer containing 8 μM biotinylated "A5" peptide (Biotin-EQEDEPEGDYFEWLE-NH2), and 100 μM ATP. The final reaction in each well of 10 μL consists of 50 pM hBTK, 2 μM biotin-A5-peptide, and 25 μM ATP. Phosphorylation reactions were allowed to proceed for 120 minutes. […]

Tyrosine-protein kinase BTK, sequence (Q06187 whole entry): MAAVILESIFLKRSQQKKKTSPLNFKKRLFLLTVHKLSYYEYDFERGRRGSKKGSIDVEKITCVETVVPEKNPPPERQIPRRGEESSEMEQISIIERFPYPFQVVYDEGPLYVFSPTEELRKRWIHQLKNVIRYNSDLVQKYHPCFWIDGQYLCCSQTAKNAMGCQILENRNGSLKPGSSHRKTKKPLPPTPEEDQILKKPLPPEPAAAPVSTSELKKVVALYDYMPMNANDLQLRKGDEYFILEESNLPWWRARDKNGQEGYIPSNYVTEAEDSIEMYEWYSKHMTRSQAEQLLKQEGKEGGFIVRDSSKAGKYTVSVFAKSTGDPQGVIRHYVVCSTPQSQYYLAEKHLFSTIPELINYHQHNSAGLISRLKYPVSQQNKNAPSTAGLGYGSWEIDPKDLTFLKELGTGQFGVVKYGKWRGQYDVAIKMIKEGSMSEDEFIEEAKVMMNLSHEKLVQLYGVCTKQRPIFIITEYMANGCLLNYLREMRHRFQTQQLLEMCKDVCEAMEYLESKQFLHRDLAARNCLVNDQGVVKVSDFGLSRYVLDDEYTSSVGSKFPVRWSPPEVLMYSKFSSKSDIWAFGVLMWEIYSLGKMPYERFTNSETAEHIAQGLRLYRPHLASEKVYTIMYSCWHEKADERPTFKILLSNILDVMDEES

IC50: 2.7 nM
SMILES: Cn1ncc2c1CCC[C@@H]2n1nc(-c2ccc(C(=O)Nc3cc(C(F)(F)F)ccn3)cc2)c2c(N)ncnc21
